Source: PubChem BioAssay (NCI)
“And” between values parts separate entries of the source, which are not always exact repeats. Equal values may be shown once.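 Compound exposure: 48 hours, 5 concentrations, 96-well plates. GI50: concentration for 50% inhibition of growth. At the TGI there is no net growth.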

What was measured:
Assay in all cases: growth of human tumour cells (NCI), 48 h
HCT-15 colon = tested on: HCT-15 colon
SR leukemia = tested on: SR leukemia
OVCAR-3 ovarian = tested on: OVCAR-3 ovarian
U251 CNS = tested on: U251 CNS
DMS 114 small cell lung = tested on: DMS 114 small cell lung
DMS 273 small cell lung = tested on: DMS 273 small cell lung
TK-10 renal = tested on: TK-10 renal
LOX IMVI melanoma = tested on: LOX IMVI melanoma
DU-145 prostate = tested on: DU-145 prostate
T-47D breast = tested on: T-47D breast

Compound | TGI (HCT-15 colon) | TGI (SR leukemia) | TGI (OVCAR-3 ovarian) | TGI (U251 CNS) | TGI (DMS 114 small cell lung) | TGI (DMS 273 small cell lung) | TGI (TK-10 renal) | TGI (LOX IMVI melanoma) | GI50 (HCT-15 colon) | GI50 (U251 CNS) | GI50 (TK-10 renal) | GI50 (LOX IMVI melanoma) | GI50 (DU-145 prostate) | TGI (DU-145 prostate) | GI50 (T-47D breast) | TGI (T-47D breast) | GI50 (SR leukemia) | GI50 (OVCAR-3 ovarian)
COC1/C(=C\C(=O)OC(C)(C)C)c2ccccc2N1C(C)=O (centres undefined) | > 100 µM | > 100 µM | > 100 µM | > 100 µM | > 100 µM | > 100 µM |  |  |  |  |  |  |  |  |  |  |  | 
Cc1nc2c(=O)[nH]c(=O)n(C)c2[nH]c1=O | > 100 µM | > 100 µM | > 100 µM | > 100 µM |  | > 100 µM | > 100 µM | > 100 µM |  |  |  |  |  |  |  |  |  | 
CC(=O)OCC1OC(OC2CC3C(C)(C)C(OC(C)=O)CC[C@]3(C)C3CCC45CC4(CC[C@H]5C(C)CC(O)[C@@H](O)C(C)(C)O)[C@]23C)C(O)C(O)C1O (some centres undefined) | 14 µM and 24.3 µM |  | 13.3 µM and 19.3 µM | 12.3 µM and 15.6 µM |  | 13.8 µM and 20.3 µM | 14 µM and 26.5 µM | 13 µM and 11.2 µM | 12 µM | 4.3 µM | 13.6 µM | 3.34 µM |  |  |  |  |  | 
NCCCN(CCCN)CCCNCc1c2ccccc2c(CNCCCN(CCCN)CCCN)c2ccccc12 | 28.6 µM | > 100 µM | 38.6 µM | 33 µM |  | 17 µM | 23.1 µM | 42 µM |  |  |  |  |  |  |  |  |  | 
C[C@@H]1O[C@@H](O[C@@H]2[C@@H](O)[C@H](OCCc3ccc(O)c(O)c3)O[C@H](COC(=O)/C=C/c3ccc(O)c(O)c3)[C@H]2O)[C@H](O)[C@H](O)[C@H]1O | > 100 µM | > 100 µM | > 100 µM | > 100 µM |  |  | > 100 µM | 34.4 µM | > 100 µM | 49.2 µM | > 100 µM | 18.3 µM | 32.6 µM | > 100 µM | > 100 µM | > 100 µM | 41.3 µM | 13 µM
CC1(C)OC[C@@H]([C@@]2(CO[Si](C)(C)C(C)(C)C)CC=CC(=O)O2)O1 | > 100 µM | 59.9 µM | 39.7 µM | > 100 µM |  |  | 40.7 µM | > 100 µM | 34.7 µM | 31.2 µM | 18.3 µM | 28.3 µM | 18.7 µM | 40.9 µM | 24.9 µM | > 100 µM | 19 µM | 15.9 µM
O=[N+]([O-])c1ccc(-c2nc(N(CCO)CCO)c3ccccc3n2)o1 | 1.71 µM |  | 1.43 µM | 1.34 µM |  |  |  | 1.64 µM | 0.176 µM | 0.229 µM | 0.286 µM | 0.269 µM | 0.0352 µM | 0.303 µM | 0.319 µM | 5.02 µM | 0.0881 µM | 0.235 µM
O=C(/C=C/C=C/c1ccccc1)CCc1ccccc1 | > 100 µM | 63.7 µM | > 100 µM | > 100 µM |  |  | > 100 µM | > 100 µM |  |  |  |  |  | > 100 µM |  | > 100 µM |  | 
COc1ccc(C(=O)C(c2ccc(OC)cc2)C2(O)C(=O)Nc3c(C)cc(Cl)cc32)cc1 (centres undefined) | > 100 µM | 48.2 µM | > 100 µM | > 100 µM |  | > 100 µM | > 100 µM |  |  |  |  |  |  |  |  |  |  | 
CCCCCNC(=O)[C@@H]1CCCN2C(=O)CC[C@H](NC(=O)[C@H](Cc3ccc(OP(=O)(O)O)cc3)NC(C)=O)C(=O)N12 | > 25 µM | > 25 µM | > 25 µM | > 25 µM |  |  | > 25 µM | > 25 µM | > 25 µM | > 25 µM | > 25 µM | > 25 µM | > 25 µM | > 25 µM | > 25 µM | > 25 µM | > 25 µM | > 25 µM
CCOC(=O)/C(=C\c1ccc(OCc2ccccc2)c(OC)c1)C(=O)c1ccccc1 | 42.3 µM | > 100 µM | 58.1 µM | 31.1 µM | 41.4 µM |  | 61 µM | 30 µM |  |  |  |  |  |  |  |  |  | 
C=CC[C@H]1C[C@@]2(C)OC[C@H](C(C)C)N2C1=O | > 100 µM | > 100 µM | > 100 µM | > 100 µM |  | > 100 µM | > 100 µM | > 100 µM |  |  |  |  |  |  |  |  |  | 
CC1Cc2c(N)nc(NN)nc2NC1=O (centres undefined) | > 100 µM |  | > 100 µM | > 100 µM | > 100 µM | > 100 µM | > 100 µM | > 100 µM |  |  |  |  |  |  |  |  |  | 
C=C1C[C@@H]2C/C=C/C(=O)C/C(C)=C\C=C\C(=O)O[C@H](C=O)C/C(C)=C/[C@H](C1)O2 | 16.2 µM | 6.77 µM | 24.4 µM | 14.1 µM |  |  | 18 µM | 13.5 µM | 0.485 µM | 0.711 µM | 3.62 µM | 0.711 µM | 0.455 µM | 2.32 µM | 1.42 µM | 54.3 µM | 1.18 µM | 0.557 µM
Cc1ncc([N+](=O)[O-])n1CCNS(=O)(=O)CCCn1ccnc1[N+](=O)[O-] | > 100 µM | > 100 µM | > 100 µM | > 100 µM |  |  | > 100 µM | > 100 µM |  |  |  |  |  | > 100 µM |  | > 100 µM |  | 
CN(C)CC(/C(Cc1ccccc1)=N\NC(=O)c1ccncc1)c1ccccc1 (centres undefined) |  |  | > 100 µM |  | 81.8 µM |  | > 100 µM | > 100 µM |  |  |  |  |  |  |  |  |  | 

Compound | TGI (HCT-15 colon) | TGI (SR leukemia) | TGI (OVCAR-3 ovarian) | TGI (U251 CNS) | TGI (DMS 114 small cell lung) | TGI (DMS 273 small cell lung) | TGI (TK-10 renal) | TGI (LOX IMVI melanoma) | GI50 (HCT-15 colon) | GI50 (U251 CNS) | GI50 (TK-10 renal) | GI50 (LOX IMVI melanoma) | GI50 (DU-145 prostate) | TGI (DU-145 prostate) | GI50 (T-47D breast) | TGI (T-47D breast) | GI50 (SR leukemia) | GI50 (OVCAR-3 ovarian)
O=C1CCCCCCCCCCC(=O)C2CCOCCOCCOCCC1Cc1cccc(n1)C2 | > 100 µM |  | > 100 µM | > 100 µM | > 100 µM | > 100 µM | > 100 µM | > 100 µM |  |  |  |  |  |  |  |  |  | 
Cc1cc(O)c(C(=O)CC2(O)C(=O)Nc3c(Cl)cc(Cl)cc32)c(=O)o1 (centres undefined) | > 100 µM | > 100 µM | > 100 µM | > 100 µM |  | > 100 µM | > 100 µM |  |  |  |  |  |  |  |  |  |  | 
C=C1CC[C@@]2(C#N)[C@H]3[C@H](CC[C@@H]2C)[C@@H](C)C[C@@H](CC(C)(C)C#N)[C@H]13 | 23.1 µM | 40.3 µM | 28.8 µM | 29.8 µM |  |  | 31.5 µM | 14.5 µM | 0.604 µM | 2.86 µM | 0.969 µM | 0.413 µM | 0.337 µM | 16.2 µM | 2.24 µM | 10.9 µM | 1.57 µM | 2.88 µM
c1cc2c(cc1C(N1CCNCC1)N1CCNCC1)OCO2 | > 100 µM | > 100 µM | > 100 µM | > 100 µM |  |  | > 100 µM | > 100 µM |  |  |  |  |  | > 100 µM |  | > 100 µM |  | 
Cc1ccccc1CN1CC2=C(CCN(Cc3ccccc3)C2=O)N2CCN=C12 | > 100 µM | > 100 µM | > 87 µM | > 100 µM |  |  | > 100 µM | > 100 µM |  |  |  |  |  | > 100 µM |  | > 84.2 µM |  | 
COC(=O)/C=C(C)/C=C/c1cc(C(C)=O)c(C)o1 | > 100 µM | > 100 µM | > 100 µM | > 100 µM | > 100 µM |  |  | > 100 µM |  |  |  |  |  |  |  |  |  | 
c1ccc2[nH]c(SSc3nc4ncncc4[nH]3)nc2c1 | > 100 µM | > 100 µM | > 100 µM | > 100 µM |  |  | > 37.3 µM | > 44.6 µM | 3.25 µM | 8.63 µM | 0.364 µM | 0.279 µM | 0.674 µM | > 100 µM | 0.489 µM | 98.9 µM | 0.551 µM | 0.579 µM
N/N=C(\CC1OC(=O)c2ccccc21)c1ccco1 (centres undefined) | > 100 µM |  | > 100 µM |  | > 100 µM | > 100 µM | > 100 µM | > 100 µM |  |  |  |  |  |  |  |  |  | 
CN(C)CCCN=C(N)N | > 100 µM | > 100 µM | > 100 µM | > 100 µM |  |  | > 100 µM | > 100 µM |  |  |  |  |  | > 100 µM |  | > 100 µM |  | 
COc1cc(Cl)cc(-c2nn(C(=O)NCCN3CCN(C)CC3)cc2-c2ccncc2)c1 | 69.9 µM | > 100 µM | 85.9 µM | > 100 µM |  |  | > 100 µM | 46.2 µM | 17.2 µM | 15.1 µM | 3.67 µM | 18 µM | 12.3 µM | 66.5 µM | 20.8 µM | > 100 µM | 29.8 µM | 23.6 µM
NCCCC(=O)Nc1ccncc1 | > 100 µM | > 100 µM | > 100 µM | > 100 µM |  |  | > 100 µM | > 100 µM | > 100 µM | > 100 µM | > 100 µM | > 100 µM | > 100 µM | > 100 µM | > 100 µM | > 100 µM | > 100 µM | > 100 µM
CC(=O)Nc1nc(SCc2ccccc2)c2ncn(C(C)=O)c2n1 | > 100 µM | > 100 µM | > 100 µM | > 100 µM |  |  | 78.3 µM | > 100 µM | 93 µM | 88.8 µM | 23.4 µM | 75.1 µM | > 100 µM | > 100 µM | 50.7 µM | > 100 µM | > 100 µM | 84.3 µM
CC(C)=CC(=O)Oc1ccc([N+](=O)[O-])cc1 | > 100 µM | > 100 µM | > 100 µM | > 100 µM | > 100 µM | > 100 µM | > 100 µM |  |  |  |  |  |  |  |  |  |  | 
CC(C)(C)C(=O)Nc1ccccc1I(=O)=O | > 100 µM | > 100 µM | > 100 µM | > 100 µM |  |  | > 100 µM | > 100 µM | > 100 µM | > 100 µM | > 100 µM | > 100 µM | > 100 µM | > 100 µM | > 100 µM | > 100 µM | 26 µM | > 100 µM
N#CCc1ccc(C(C#N)/C(CCCC(=O)Nc2cccc([N+](=O)[O-])c2)=N\NC(=O)NN)cc1 (centres undefined) | > 100 µM | > 100 µM | > 100 µM | > 100 µM | > 100 µM | > 100 µM | > 100 µM |  |  |  |  |  |  |  |  |  |  | 
